# Measurements taken from patent US10022376B2 (Pfizer Inc., priority 2014, dated 2018).
# Test system: rhIFNγ stimulated STAT-3 phosphorylation in the A549 human epithelial cell line
# Assay: A549 Cell Assay: Inhibition of pSTAT3
# Assay type: cell-based
# Conditions: Homo sapiens; A549 cells
# Experimental: A549 Cell Assay: Inhibition of pSTAT3
# An assay measuring the efficacy of JAK inhibitors on the functional response of recombinant human interferon γ (rhIFNγ) stimulated STAT-3 phosphorylation in the A549 human epithelial cell line.
# A549 cells (ATCC #CCL-185), were plated at 30,000 cells/well in 96 well flat bottomed tissue culture plates (BD#353072) in 200 μL of growth medium (DMEM, Pfizer media prep, with 10% Fetal Bovine Serum, Sigma #F4135, 2 mM L-Glutamine, Pfizer media prep, 100 U/mL penicillin, Pfizer media prep, and 200 μg/ml streptomycin, Pfizer media prep), and cultured at 37° C., 5% CO2 incubator for 18 hours. Growth medium was removed by vacuum aspiration (V&P Scientific #vp187 bp-60), and 90 μL of pre-warmed assay medium (DMEM with 0.2% BSA, Miltenyi #130-091-376) was added to each well and incubated for 15 minutes at 37° C. 10 μL of vehicle control or test compound (final concentration range of 0.3 nM to 10 μM with 0.1% DMSO) was added to the cells. Plates were incubated at 37° C. for 1 hour. After compound incubation, 10 μL of 220 ng/mL recombinant human IFNγ (R&D Systems #285-IF, final rhIFNγ concentration of 20 ng/mL) was added to the cells and plates were incubated for 30 minutes at 37° C. Wells containing A549 cells, medium with 0.1% DMSO and no rhIFNγ were used as background controls. After rhIFNγ stimulation, media was aspirated from each well and 35 μL/well of iced-cold MSD lysis buffer containing protease and phosphatase inhibitors from Phospho-STAT3 Tyr705 assay kit (Meso-Scale Discovery #K150DID) was added to each well. Plates were incubated at 4° C. with shaking for 30 minutes. Cell lysates were assayed following the MSD Phospho-STAT3 Tyr705 assay kit protocol to detect pSTAT3.
# Data were collected and transformed into percent inhibition and calculated using the following formula: […]
row,IC50,SMILES
1,0.0674 µM,"CCN(c1ccccc1CNc1nc(-c2cc(F)c(O)cc2CC(F)(F)F)cc2[nH]nc(C(=O)NC)c12)S(=O)(=O)CC [Example 1, 4-({2-[Ethyl(ethylsulfonyl)amino]benzyl}amino)-6-[5-fluoro-4-hydroxy-2-(2,2,2-trifluoroethyl)phenyl]-N-methyl-1H-pyrazolo[4,3-c]pyridine-3-carboxamide]"
2,0.0468 µM,"CCc1cc(O)c(F)cc1-c1cc2[nH]nc(C(=O)NC)c2c(NCc2ccccc2N(CC)S(=O)(=O)CC)n1 [Example 2, 4-({2-[ethyl(ethylsulfonyl)amino]benzyl}amino)-6-(2-ethyl-5-fluoro-4-hydroxyphenyl)-N-methyl-1H-pyrazolo[4,3-c]pyridine-3-carboxamide]"
3,0.0162 µM,"CCc1cc(O)c(F)cc1-c1cc2[nH]nc(C(=O)NC)c2c(NCc2ccccc2N(C)S(=O)(=O)CC)n1 [Example 3, 6-(2-ethyl-5-fluoro-4-hydroxyphenyl)-4-({2-[(ethylsulfonyl)(methyl)amino]benzyl}amino)-N-methyl-1H-pyrazolo[4,3-c]pyridine-3-carboxamide]"
4,0.0297 µM,"CCc1cc(O)c(F)cc1-c1cc2[nH]nc(C(=O)NC)c2c(NCCc2ccc(O)cc2)n1 [Example 4, 6-(2-ethyl-5-fluoro-4-hydroxyphenyl)-4-{[2-(4-hydroxyphenyl)ethyl]amino}-N-methyl-1H-pyrazolo[4,3-c]pyridine-3-carboxamide]"
5,0.0017 µM,"CCc1cc(O)c(F)cc1-c1cc2[nH]nc(C(=O)NC)c2c(NCC(C)C)n1 [Example 5, 6-(2-ethyl-5-fluoro-4-hydroxyphenyl)-N-methyl-4-[(2-methylpropyl)amino]-1H-pyrazolo[4,3-c]pyridine-3-carboxamide]"
6,0.0234 µM,"CCc1cc(O)c(F)cc1-c1cc2[nH]nc(C(=O)NC)c2c(NCc2cc(Cl)ccc2N(C)S(C)(=O)=O)n1 [Example 6, 4-({5-chloro-2-[methyl(methylsulfonyl)amino]benzyl}amino)-6-(2-ethyl-5-fluoro-4-hydroxyphenyl)-N-methyl-1H-pyrazolo[4,3-c]pyridine-3-carboxamide]"
7,0.0057 µM,"CCc1cc(O)c(F)cc1-c1cc2[nH]nc(C(=O)NC)c2c(NCc2cc(F)ccc2N(C)S(C)(=O)=O)n1 [Example 7, 6-(2-ethyl-5-fluoro-4-hydroxyphenyl)-4-({5-fluoro-2-[methyl(methylsulfonyl)amino]benzyl}amino)-N-methyl-1H-pyrazolo[4,3-c]pyridine-3-carboxamide]"
8,0.0064 µM,"CCc1cc(O)c(F)cc1-c1cc2[nH]nc(C(=O)NC)c2c(NCc2c(F)cccc2N(C)S(C)(=O)=O)n1 [Example 8, 6-(2-ethyl-5-fluoro-4-hydroxyphenyl)-4-({2-fluoro-6-[methyl(methylsulfonyl)amino]benzyl}amino)-N-methyl-1H-pyrazolo[4,3-c]pyridine-3-carboxamide]"
9,0.0724 µM,"CNC(=O)c1n[nH]c2cc(-c3cc(F)c(O)cc3CC(F)(F)F)nc(NCc3cc(C)ccc3N(C)S(C)(=O)=O)c12 [Example 11, 6-[5-fluoro-4-hydroxy-2-(2,2,2-trifluoroethyl)phenyl]-N-methyl-4-({5-methyl-2-[methyl(methylsulfonyl)amino]benzyl}amino)-1H-pyrazolo[4,3-c]pyridine-3-carboxamide]"
10,0.0924 µM,"CNC(=O)c1n[nH]c2cc(-c3cc(F)c(O)cc3CC(F)(F)F)nc(NCc3cc(Cl)ccc3N(C)S(C)(=O)=O)c12 [Example 15, 4-({5-chloro-2-[methyl(methylsulfonyl)amino]benzyl}amino)-6-[5-fluoro-4-hydroxy-2-(2,2,2-trifluoroethyl)phenyl]-N-methyl-1H-pyrazolo[4,3-c]pyridine-3-carboxamide]"
11,0.0651 µM,"CNC(=O)c1n[nH]c2cc(-c3cc(F)c(O)cc3CC(F)(F)F)nc(NCC(C)C)c12 [Example 16, 6-[5-fluoro-4-hydroxy-2-(2,2,2-trifluoroethyl)phenyl]-N-methyl-4-[(2-methylpropyl)amino]-1H-pyrazolo[4,3-c]pyridine-3-carboxamide]"
12,0.174 µM,"CNC(=O)c1n[nH]c2cc(-c3cc(F)c(O)cc3CC(F)(F)F)nc(NCC3CCCC3)c12 [Example 17, 4-[(cyclopentylmethyl)amino]-6-[5-fluoro-4-hydroxy-2-(2,2,2-trifluoroethyl)phenyl]-N-methyl-1H-pyrazolo[4,3-c]pyridine-3-carboxamide]"
13,0.874 µM,"CS(=O)(=O)N(CCO)c1ccccc1CNc1nc(-c2cc(F)c(O)cc2CC(F)(F)F)cc2[nH]nc(C(N)=O)c12 [Example 27, 6-[5-fluoro-4-hydroxy-2-(2,2,2-trifluoroethyl)phenyl]-4-({2-[(2-hydroxyethyl)(methylsulfonyl)amino]benzyl}amino)-1H-pyrazolo[4,3-c]pyridine-3-carboxamide]"
14,0.0869 µM,"CCc1cc(O)c(F)cc1-c1cc2[nH]nc(C(=O)NC)c2c(NCc2ccc(O)cc2N(C)S(C)(=O)=O)n1 [Example 29, 6-(2-Ethyl-5-fluoro-4-hydroxyphenyl)-4-({4-hydroxy-2-[methyl (methylsulfonyl)amino]benzyl}amino)-N-methyl-1H-pyrazolo[4,3-c]pyridine-3-carboxamide]"
15,0.164 µM,"CCc1cc(O)c(F)cc1-c1cc2[nH]nc(C(N)=O)c2c(NCc2ccc(O)cc2N(C)S(C)(=O)=O)n1 [Example 30, 6-(2-Ethyl-5-fluoro-4-hydroxyphenyl)-4-({4-hydroxy-2-[methyl(methylsulfonyl)amino]benzyl}amino)-1H-pyrazolo[4,3-c]pyridine-3-carboxamide]"
16,0.628 µM,"CNC(=O)c1n[nH]c2cc(-c3cc(F)c(O)cc3CC(F)(F)F)nc(NCc3ccccc3N(C)S(=O)(=O)c3cccc(O)c3)c12 [Example 32, 6-[5-Fluoro-4-hydroxy-2-(2,2,2-trifluoroethyl)phenyl]-4-[(2-{[(3-hydroxyphenyl)sulfonyl](methyl)amino}benzyl)amino]-N-methyl-1H-pyrazolo[4,3-c]pyridine-3-carboxamide]"
17,0.301 µM,"CCN(c1ccc(O)cc1CNc1nc(-c2cc(F)c(O)cc2CC(F)(F)F)cc2[nH]nc(C(=O)NC)c12)S(C)(=O)=O [Example 34, 4-({2-[ethyl(methylsulfonyl)amino]-5-hydroxybenzyl}amino)-6-[5-fluoro-4-hydroxy-2-(2,2,2-trifluoroethyl)phenyl]-N-methyl-1H-pyrazolo[4,3-c]pyridine-3-carboxamide]"
18,0.433 µM,"CCN(c1ccc(O)cc1CNc1nc(-c2cc(F)c(O)cc2CC(F)(F)F)cc2[nH]nc(C(=O)NC)c12)S(=O)(=O)c1ccccc1 [Example 36, 4-({2-[ethyl(phenylsulfonyl)amino]-5-hydroxybenzyl}amino)-6-[5-fluoro-4-hydroxy-2-(2,2,2-trifluoroethyl)phenyl]-N-methyl-1H-pyrazolo[4,3-c]pyridine-3-carboxamide]"
19,0.0474 µM,"CNC(=O)c1n[nH]c2cc(-c3cc(F)c(O)cc3C3CC3)nc(NCc3ccccc3N(C)S(C)(=O)=O)c12 [Example 37, 6-(2-cyclopropyl-5-fluoro-4-hydroxyphenyl)-N-methyl-4-({2-[methyl(methylsulfonyl)amino]benzyl}amino)-1H-pyrazolo[4,3-c]pyridine-3-carboxamide]"
20,0.0308 µM,"CCc1cc(O)c(F)cc1-c1cc2[nH]nc(C(=O)NC)c2c(N[C@H](C)c2ccccc2N(C)S(C)(=O)=O)n1 [Example 38, 6-(2-Ethyl-5-fluoro-4-hydroxyphenyl)-N-methyl-4-{[(1R)-1-{2-[methyl(methylsulfonyl)amino]phenyl}ethyl]amino}-1H-pyrazolo[4,3-c]pyridine-3-carboxamide]"
21,0.0609 µM,"CCc1cc(O)c(F)cc1-c1cc2[nH]nc(C(=O)NC)c2c(N[C@@H](C)c2ccccc2N(C)S(C)(=O)=O)n1 [Example 39, 6-(2-Ethyl-5-fluoro-4-hydroxyphenyl)-N-methyl-4-{[(1S)-1-{2-[methyl(methylsulfonyl)amino]phenyl}ethyl]amino}-1H-pyrazolo[4,3-c]pyridine-3-carboxamide]"
22,0.05 µM,"CCc1cc(O)c(F)cc1-c1cc2[nH]nc(C(N)=O)c2c(NCc2ccccc2N(C)S(=O)(=O)c2ccccc2)n1 [Example 40, 6-(2-Ethyl-5-fluoro-4-hydroxyphenyl)-4-({2-[methyl(phenylsulfonyl)amino]benzyl}amino)-1H-pyrazolo[4,3-c]pyridine-3-carboxamide]"
23,0.645 µM,"CN(c1ccc(O)cc1CNc1nc(-c2cc(F)c(O)cc2CC(F)(F)F)cc2[nH]nc(C(N)=O)c12)S(=O)(=O)c1ccccc1 [Example 42, 6-[5-fluoro-4-hydroxy-2-(2,2,2-trifluoroethyl)phenyl]-4-({5-hydroxy-2-[methyl(phenylsulfonyl)amino]benzyl}amino)-1H-pyrazolo[4,3-c]pyridine-3-carboxamide]"
24,0.764 µM,"CCN(c1ccc(O)cc1CNc1nc(-c2cc(F)c(O)cc2CC(F)(F)F)cc2[nH]nc(C(N)=O)c12)S(=O)(=O)c1ccccc1 [Example 43, 4-({2-[ethyl(phenylsulfonyl)amino]-5-hydroxybenzyl}amino)-6-[5-fluoro-4-hydroxy-2-(2,2,2-trifluoroethyl)phenyl]-1H-pyrazolo[4,3-c]pyridine-3-carboxamide]"
